# Laboratory results from publication PMC7948495, “The flexible N-terminus of BchL autoinhibits activity through interaction with its [4Fe-4S] cluster and released upon ATP binding” (The Journal of Biological Chemistry, 2020).
# Columns and labels:
# [1] = biological target: T1, BchL (Cereibacter sphaeroides, UniProt Q9RFD6); assay: EPR of the [4Fe-4S] cluster; format: binding; details: 40 µM BchL, 3 mM ADP, 1.7 mM dithionite
# T1 construct: full-length with N-terminal 6xHis tag and TEV site; recombinant, plasmid-expressed; anaerobically purified; homodimer bridged by one [4Fe-4S] cluster
# T1 sequence (Q9RFD6 whole entry): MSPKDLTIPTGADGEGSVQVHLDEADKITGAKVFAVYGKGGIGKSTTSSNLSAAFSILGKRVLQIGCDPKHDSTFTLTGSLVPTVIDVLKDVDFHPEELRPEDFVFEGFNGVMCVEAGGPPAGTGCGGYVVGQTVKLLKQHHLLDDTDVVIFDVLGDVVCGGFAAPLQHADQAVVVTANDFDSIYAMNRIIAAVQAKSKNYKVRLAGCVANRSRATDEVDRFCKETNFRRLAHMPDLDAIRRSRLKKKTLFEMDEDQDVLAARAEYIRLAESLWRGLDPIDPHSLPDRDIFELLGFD
# [2] = biological target: T2, BchL (Cereibacter sphaeroides, UniProt Q9RFD6, D180N/D182N); assay: nitrocellulose filter binding; details: labelled compound (α32P-ATP tracer); 4 µM BchL, 1 mM ATP, 10 mM MgCl2, pH 7.5, 25 °C; stoichiometry, no affinity constant
# T2 construct: full-length with N-terminal 6xHis tag and TEV site; recombinant, plasmid-expressed; anaerobically purified; homodimer bridged by one [4Fe-4S] cluster
# T2 sequence (Q9RFD6 whole entry D180N/D182N): as the sequence (Q9RFD6 whole entry) above, with D180N, D182N counted along it
# [3] = biological target: T3, linked-BchL (L1-L2) (Cereibacter sphaeroides, UniProt Q9RFD6, K44A); assay: nitrocellulose filter binding; details: labelled compound (32P-ATP tracer); 1 mM ATP, 10 mM MgCl2, pH 7.5, 25 °C; one of two sites mutated
# T3 construct: N-terminal 6xHis tag and TEV site
# T3 sequence (Q9RFD6 whole entry K44A): as the sequence (Q9RFD6 whole entry) above, with K44A counted along it
# [4] = biological target: T4, linked-BchL (L1-L2) (Cereibacter sphaeroides, UniProt Q9RFD6); assay: nitrocellulose filter binding; details: labelled compound (α32P-ATP tracer); 4 µM BchL, 1 mM ATP, 10 mM MgCl2, pH 7.5, 25 °C; stoichiometry, no affinity constant
# T4 construct: N-terminal 6xHis tag and TEV site
# T4 sequence (Q9RFD6 whole entry): as the sequence (Q9RFD6 whole entry) above
# Excerpt: nitrocellulose filter binding on linked-BchL (L1-L2) | linked-BchL with unaltered ATP-binding sites ([…]) bind ATP to similar extents
# [5] = biological target: T5, BchL (Cereibacter sphaeroides, UniProt Q9RFD6, S17A); assay: hydrogen-deuterium exchange mass spectrometry; format: binding; details: 2 mM ATP, 10 mM MgCl2, pD 7.5, anaerobic
# T5 construct: full-length with N-terminal 6xHis tag and TEV site; recombinant, plasmid-expressed; anaerobically purified; homodimer bridged by one [4Fe-4S] cluster
# T5 sequence (Q9RFD6 whole entry S17A): as the sequence (Q9RFD6 whole entry) above, with S17A counted along it
# [6] = biological target: T1, BchL; assay: nitrocellulose filter binding; details: labelled compound (α32P-ATP tracer); 4 µM BchL, 1 mM ATP, 10 mM MgCl2, pH 7.5, 25 °C; stoichiometry, no affinity constant
ATP bound per BchL dimer [2],ATP bound per BchL dimer [6],Compound,EPR of the [4Fe-4S] cluster [1],nitrocellulose filter binding [3],nitrocellulose filter binding [4],hydrogen-deuterium exchange mass spectrometry [5]
,,Nc1ncnc2c1ncn2[C@@H]1O[C@H](COP(=O)(O)OP(=O)(O)O)[C@@H](O)[C@H]1O [ADP],"with ADP, the proportion of the FeS^A species was diminished by a factor of two",,,
~ 2 ATP per dimer,~ 2 ATP per dimer,Nc1ncnc2c1ncn2[C@@H]1O[C@H](COP(=O)(O)OP(=O)(O)OP(=O)(O)O)[C@@H](O)[C@H]1O [ATP],,"When only one of the two ATP binding sites is mutated (L1^KA-L2), partial ATP binding is observed",linked-BchL with unaltered ATP-binding sites (L1L2) bind ATP to similar extents,Both BchL and BchL^S17A show similar patterns of reduced deuteration upon binding to ATP
